Data from article PMC6102691, “Identification of a novel ligand for the ATAD2 bromodomain with selectivity over BRD4 through a fragment growing approach” (Organic & Biomolecular Chemistry, 2018).

Experiments:
BRD4 = BRD4 (Homo sapiens, UniProt O60885); assay: Surface plasmon resonance (SPR) direct binding to BRD4; settings: SPR format assay; Kd above the top concentration projected by extrapolation (extrapolated Rmax from control compound)
Description: Surface plasmon resonance (SPR) was used to assess the direct binding of the fragments and provide Kd values for binding to both ATAD2 and BRD4. SPR can yield artefactual data where the concentration of a small-molecular analyte exceeds ∼250 μM, and accordingly, this was the highest concentration used in the assays. Where the Kd exceeded this limit, projected Kds were determined by extrapolation, using the observed response units for compound binding (RU) relative to the molecular weight of a known control compound.[23]
(§1) 12.5 μM using an Echo 550 (Labcyte). Each well was backfilled to a final volume of 200 nl (for the […]), resulting in final DMSO concentrations of 2 %. 5 μl of GST-ATAD2 was added to each well and incubated for 30mins resulting in a final concentration of 5 nM.
(§2) 5μl of biotinylated-histone H4 peptide (SGRG-K(Ac)-GG-K(Ac)-GLG-K(Ac)-GGA-K(Ac)- RHRKVGG-K(Biotin)) was then added to each well at a final concentration of 500nM. Both GST-ATAD2 and peptide were diluted in buffer B (50 mM Tris pH 7.5, […], 1 mM DTT, 100 μg/ml bovine serum albumin (BSA)). The plate was then incubated at room temperature for 30mins and then 5 μl LanthaScreen® Tb-anti-GST Antibody (Life Technologies) at final concentration of 5 nM was added to each well and incubated for an additional 30mins. 5 μl of streptavidin-XLL65 (Cisbio Assay) at a final concentration of […] was added to each assay well. Both dyes were diluted in buffer C (50 mM Tris pH 7.5, […], 100 μg/ml BSA). The plate was incubated at room temperature for a further 30mins and then read using a PheraStar FS (BMG Labtech). The data were analysed using Graphpad […]
(§3) 1.4 Surface Plasmon Resonance (SPR).
(§4) SPR-based ligand binding assays were performed using Biacore S200 (GE Healthcare) at 25 °C using single cycle affinity.
(§5) ATAD2N1064A was achieved using standard amine coupling on a CM5 chip surface. The surface was prepared through activation with EDC/NHS, followed by injection of 10 µg/ml of respective proteins until target level 8000 RU was reached. The surface was then quenched using 1 M Ethanolamine and washed with running buffer 10 mM HEPES, 150mM NaCl, 0.01% TWEEN20, 0.5 mM TCEP and 1% DMSO with a flow rate of […]. Compounds were injected in a dose-response manner (8 concentration points ranging from 0-200 µM) in series across the control, ATAD2, BRD4, and ATAD2-N1064A flow cells using solvent correction to account for bulk refractive index changes. The reference control channel was subtracted […]
(§6) from immobilised channels and dose-response data was fitted using a steady state constant Rmax 1:1 binding model, using an extrapolated Rmax determined from a binding control compound in those cases where the extrapolated Kd value was greater than the top concentration used in the experiment (200 µM). K d values are reported to the nearest 100th of micromolar. 1 […]
(§7) Crystallisation was performed at 20 °C using the hanging drop vapor diffusion method.
(§8) Crystals of ATAD2 were grown by mixing 2µl ATAD2 at 7mg/ml and 2µl precipitant containing 0.1 M BIS-TRIS pH 6.5 and 2.0 M ammonium sulfate. Crystals were harvested in a diffusion solution containing 10 mM compound, 5% DMSO, 25 mM HEPES pH 7.5, 75 mM NaCl, 50 mM BIS-TRIS pH 6.5 and 1.0 M Ammonium Sulfate for 48hrs. Prior to data collection the crystals were cryo protected with the addition of 25% (v/v) ethylene glycol to the diffusion solution. X-ray diffraction data were recorded at Diamond Light Source (Harwell, Oxfordshire, UK). Data processing was carried out using XDS, POINTLESS/AIMLESS2 and other programs of the CCP4i suite3 run through the CCP4i2 gui. Structures were solved by molecular replacement using PHASER4 and pdb 3DAI as a starting model. REFMAC5 was employed for refinement, and model building was performed using COOT6. PDBs were deposited within the protein database www.pdb.org using accession codes: 11 XXXX, 15a […]

[1] = biological target: T1, GST-ATAD2 bromodomain / biotinylated acetylated histone H4 peptide (Homo sapiens, UniProt Q6PL18); assay: ATAD2-histone displacement HTRF assay; type: binding; settings: for IC50: HTRF format assay, highest concentration 1000 μM; for ATAD2 LE: Ligand efficiency (LE) = 1.4(–log IC50)/N, N = number of non-hydrogen atoms, from HTRF IC50
T1 construct: 981-1108; made in house; host or cells: Escherichia coli BL21 (DE3) pLysS, plasmid pGEX-6P-1
T1 sequence (Q6PL18 981-1108): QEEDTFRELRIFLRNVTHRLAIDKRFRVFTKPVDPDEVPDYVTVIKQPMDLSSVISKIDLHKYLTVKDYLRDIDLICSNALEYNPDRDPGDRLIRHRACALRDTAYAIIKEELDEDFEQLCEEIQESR
Description: (§9) Surface plasmon resonance (SPR) was used to assess the direct binding of the fragments and provide Kd values for binding to both ATAD2 and BRD4. SPR can yield artefactual data where the concentration of a small-molecular analyte exceeds ∼250 μM, and accordingly, this was the highest concentration used in the assays.
1.1 Protein Purification.
The ATAD2 bromodomain 981-1108 was expressed with an N-terminal GST fusion from the pGEX-6P-1 plasmid. The plasmids were transformed into BL21 (DE3) pLysS Escherichia coli (Novagen) and then the cells grown in luria bertani (LB) media at 37 °C until an OD600 of 0.6 was reached. The temperature was reduced to 20 °C and expression induced using 0.2 mM Isopropyl β-D-1-thiogalactopyranoside (IPTG). The cells were harvested after overnight incubation and resuspended in buffer A (20 mM HEPES pH 7.4, 100 mM NaCl, 5 mM Dithiothreitol (DTT)). The cells were lysed by sonication and the lysate cleared by centrifugation (50,000 x g, 4 °C, 1 hr). The protein was passed over 5ml of glutathione Sepharose 4B resin (GE Healthcare) at 4 °C. The resin was then washed with buffer A and the protein eluted with buffer A supplemented with 10 mM glutathione. The protein was then applied to a Superdex 200 26/60 gel filtration column (GE Healthcare) equilibrated in buffer […]
1.2 Isothermal Titration Calorimetry.
ATAD2 was exchanged into ITC buffer (50 mM HEPES pH7.4, 200 mM NaCl, 1 mM DTT).
ITC measurements were carried out at 25°C on a Microcal ITC 200 (Malvern Instruments Ltd, Malvern, UK). Compound 11 at 40mM, 2% DMSO was titrated into ATAD2 prepared in the cell at 150 μM, 2% DMSO. Titrations began with an initial 0.5 μL injection followed by 19x 2 μL injections of compound, with 120s spacing between each injection, and stirred at 1000 rpm throughout the experiment. Data were then analysed using Origin 7.0 (OriginLab Corp., Burlington, NC, USA) and fit with the one-set-of-sites model.
1.3 ATAD2-Histone displacement HTRF assay.
Compounds (dissolved to 100 mM in DMSO) were dispensed into black 384 well assay plates […]
as §1, §2, §3, §4
ATAD2N1064A was achieved using standard amine coupling on a CM5 chip surface. The surface was prepared through activation with EDC/NHS, followed by injection of 10 µg/ml of respective proteins until target level 8000 RU was reached. The surface was then quenched using 1 M Ethanolamine and washed with running buffer 10 mM HEPES, 150mM NaCl, 0.01% TWEEN20, 0.5 mM TCEP and 1% DMSO with a flow rate of […]. Compounds were injected in a dose-response manner (8 concentration points ranging from 0-200 µM) in series across the control, ATAD2, BRD4, and ATAD2-N1064A flow cells using solvent correction to account for bulk refractive index changes. The reference control channel was subtracted

ATAD2 bromodomain = biological target: T2, ATAD2 bromodomain (Homo sapiens, UniProt Q6PL18); assay: Surface plasmon resonance (SPR) direct binding to ATAD2; settings: SPR format assay; Kd above the top concentration projected by extrapolation (extrapolated Rmax from control compound)
T2 construct: 981-1108; GST (N); made in house; host or cells: Escherichia coli BL21 (DE3) pLysS, plasmid pGEX-6P-1
T2 sequence (Q6PL18 981-1108): T1 sequence (Q6PL18 981-1108)
Description: as §9, §1, §2, §3, §4, §5, §6, §7, §8

SMILES | Kd (BRD4) | melting point | IC50 [1] | ATAD2 LE [1] | Kd (ATAD2 bromodomain)
Cc1ccc(Cn2cc3c(cc2=O)C(C)(C)C(=O)N3C)cc1 [Compound 17l] | 58 µM | 180 to 182 °C | 274 ± 75 µM | 0.23 | > 200 µM
CN1C(=O)C(C)(C)c2cc(=O)n(Cc3cccc(C#N)c3)cc21 [Compound 17p] | 184 µM | – | 668 ± 28 µM | 0.19 | > 200 µM
CN1C(=O)C(C)(C)c2cc(=O)n(Cc3ccccc3C(=O)O)cc21 [Compound 17q] | > 200 µM | – | > 1000 µM | – | > 2000 µM
CCC1(CC)C(=O)N(C)c2cn(Cc3ccc(Cl)cc3)c(=O)cc21 [Compound 18a] | > 200 µM | – | 163 ± 23 µM | 0.22 | 107 µM
CCC1(CC)C(=O)N(C)c2cn(Cc3ccc(C(F)(F)F)cc3)c(=O)cc21 [Compound 18b] | > 2000 µM | – | 163 ± 37 µM | 0.20 | > 200 µM
CN1C(=O)C(C)(Cc2ccccc2)c2cc(=O)n(Cc3ccc(Cl)cc3)cc21 (stereo not drawn) [Compound 22a] | > 2000 µM | – | > 1000 µM | – | > 200 µM
CN1C(=O)C(C)(Cc2ccccn2)c2cc(=O)n(Cc3ccc(Cl)cc3)cc21 (stereo not drawn) [Compound 22b] | > 200 µM | – | > 1000 µM | – | > 200 µM
Cc1nc(CC2(C)C(=O)N(C)c3cn(Cc4ccc(Cl)cc4)c(=O)cc32)cs1 (stereo not drawn) [Compound 22c] | > 200 µM | – | 352 µM | 0.17 | 110 µM
CN1C(=O)C(C)(CC(C)(C)C)c2cc(=O)n(Cc3ccc(Cl)cc3)cc21 (stereo not drawn) [Compound 22d] | > 2000 µM | – | 489 ± 18 µM | 0.18 | 125 µM
CN1C(=O)C(C)(CC2(C)COC2)c2cc(=O)n(Cc3ccc(Cl)cc3)cc21 (stereo not drawn) [Compound 22e] | > 2000 µM | – | 214 µM | 0.19 | > 200 µM
CN1C(=O)C(C)(CC2CC2)c2cc(=O)n(Cc3ccc(Cl)cc3)cc21 (stereo not drawn) [Compound 22f] | > 200 µM | – | 304 ± 83 µM | 0.20 | 113 µM
